The nature of data set [1]: In vivo pharmacokinetic study in rats. Particulars: both sexes, Sprague-Dawley, plasma, rat. On the procedure: Adult males and females Sprague Dawley rats, with average weight of 200–250 g, were purchased from the Experiment Animal Center of Lanzhou University (Lanzhou, China). The rats were housed under an environmentally controlled room for one week before staring the experiment. All procedures were performed according to the guidelines issued by the Ethical Committee of Lanzhou University (Permit Number: SYXK(Gan)-2018-0002).
After 7 days acclimatization, rats were randomly divided into two groups with half male and half female in each group (n = 6). All animals were fasted for 12 h with access to water prior to dosing. One group was intravenously administered with 3c at dose of 10 mg/kg. Another group was oral administered with 3c at dose of 40 mg/kg. Approximately 0.3 mL of blood samples were collected into heparinized tubes from the orbital vein at 0.083, 0.25, 0.5, 0.75, 1, 2, 4, 8, 12 and 24 h after the administration. The heparinized blood samples were immediately centrifuged at 4000 rpm for 10 min and the upper plasma was separated and immediately stored at −20 °C used for UPLC-MS/MS analysis.
Plasma samples were processed as follows. First, 100 μL of plasma samples and 50 μL of tinidazole (1000 ng/mL, internal standard) were mixed by vortex for 1 min. Next, 250 μL of acetonitrile were added to the mixture and vortexed for 10 min. After centrifugation at 10,000 rpm for 10 min, 200 μL of the upper organic layer were removed into 1.5 mL centrifuge tube and dried with nitrogen. Finally, the residue was reconstituted in 100 μL of 50% acetonitrile, vortexed for 1 min, centrifuged at 10,000 rpm for 10 min, and then the supernatant was used for UPLC-MS/MS analysis.
The obtained data were analyzed using a non-compartment open model with PKsolver Software. Pharmacokinetic parameters and the experiment data were expressed as the mean ± standard deviation (SD). A paired student’s t-test was used for statistical analysis, with p < 0.05 considered the minimum level of significance.

Data set [2] relates to Pseudomonas aeruginosa CVCC 3359 (PA). Nature of the data set: MIC, microplate dilution method. Particulars: read-out: MIC PA. Type of data set: cell-based. The source says:
(§1) According to microplate dilution method, all the prepared compounds were screened for their in vitro antibacterial activity. The investigation included three representative Gram-positive strains, including Staphylococcus aureus CICC 10384 (S. aureus), Staphylococcus albus CICC 20237 (S. albus) and methicillinresistant Staphylococcus aureus ATCC 43300 (MRSA), and two representative Gram-negative strains, including Escherichia coli CICC 10389 (E. coli) and Pseudomonas aeruginosa CVCC 3359 (PA). Harmine and cinnamic acid were used as reference drugs.
(§2) The antibacterial efficiency of all prepared compounds was determined using the microplate dilution method. All compounds were prepared into different concentrations of stock solution according to their solubility. The compounds were added to the 96 well plate and serially diluted in Mueller-Hinton broth. Three Gram-positive strains (S. aureus, S. albus and MRSA) and two Gram-negative strains (E. coli and PA) were cultivated and added to the 96 well plate. The initial concentration of bacteria should be higher than 10^5 CFU/mL. The samples were incubated at 37 °C for 18–24 h. The MIC was determined for compounds by observing change of clarity in the broth. The same procedure was repeated in triplicate.

Data set [3] concerns Staphylococcus albus CICC 20237 (S. albus). Nature of the data set: MIC, microplate dilution method. Type of data set: cell-based. Particulars: read-out: MIC S. albus.
Excerpt: as §1, §2

Data set [4] has as its system Escherichia coli CICC 10389 (E. coli). Nature of the data set: MIC, microplate dilution method. Type of data set: cell-based. Particulars: read-out: MIC E. coli.
Excerpt: as §1, §2

Data set [5] concerns methicillinresistant Staphylococcus aureus ATCC 43300 (MRSA). Nature of the data set: MIC, microplate dilution method. Type of data set: cell-based. The settings on record: read-out: MIC MRSA.
Excerpt: as §1, §2

Data set [6] relates to Staphylococcus aureus CICC 10384 (S. aureus). Nature of the data set: MIC, microplate dilution method. Type of data set: cell-based. The settings on record: read-out: MIC S. aureus.
Excerpt: as §1, §2

Data set [7] concerns HepG2 (human liver carcinoma cells). Nature of the data set: In vitro cytotoxic activity, MTT assay. Format: cell-based. The settings on record: read-out: IC50 HepG2. The procedure:
(§3) In vitro cytotoxic activity of 3c was evaluated using MTT (3-(4,5)-dimethylthi ahiazo (-2)-3,5-diphenytetrazoliiumromide) assay using WI-38 (Human embryonic lung fibroblasts), MCF-7 (human breast cancer cells) and HepG2 (human liver carcinoma cells). Harmine was used as a control.
(§4) The in vitro cytotoxicity of 3c was determined using MTT assay. WI-38 (Human embryonic lung fibroblasts), MCF-7 (Human breast cancer cells) and HepG2 (human liver carcinoma cells) were purchased from American Type Culture Collection (Manassas, VA, USA). The cells were maintained using Dulbecco’s modified eagle’s medium (DMEM, Sangon Biotech, Shanghai, China) supplemented with 10% fetal bovine serum (FBS, Sijiqing Bioengineering Material Co., Ltd., Hangzhou, China), 100 U/mL penicillin and 100 μg/mL streptomycin in a humidified 37 °C incubator under 5% CO2. 100 μL culture medium at a concentration of 1 × 10^4 cells/mL was added to 96-well plate and incubated in a humidified 37 °C incubator under 5% CO2. After 24 h, 10 µL solution of 3c and harmine dissolved in DMSO and PBS and then diluted with DMEM under a concentration gradient, which was added in the wells for final concentrations of 1000, 500, 250, 125, 62.5 µmol/L of compounds in WI-38 and 160, 80, 40, 20, 10 µmol/L of compounds in MCF-7 and Hep-G2. After 48 h incubation, 10 μL MTT solution (5 mg/mL) was added into each well and incubated in a humidified 37 °C incubator under 5% CO2. After 4 h, the supernatant was removed and 150 μL DMSO was added. The absorbance of each well was determined by an enzyme-linked immunosorbent assay reader (Thermo Fisher Scientific Inc., Rochester, NY, USA) at wavelengths of 570 nm. The experiments were performed in triplicate.

Data set [8] concerns MCF-7 (human breast cancer cells). Nature of the data set: In vitro cytotoxic activity, MTT assay. Format: cell-based. Particulars: read-out: IC50 MCF-7. The procedure: as §3, §4
For data set [9], the system named is WI-38 (Human embryonic lung fibroblasts). Nature of the data set: In vitro cytotoxic activity, MTT assay. The settings on record: read-out: IC50 WI-38. Format: cell-based. The procedure:
as §3, §4

Another data set relates to S. aureus (CICC 10384). Nature of the data set: Bactericidal time-kill kinetics. Type of data set: cell-based, Staphylococcus aureus. The procedure: The bacteria S. aureus was prepared in Muellere Hinton broth at 37 °C for 6 h with shaking. The solution of 3c (1 × MIC and 6 × MIC), 5a (1 × MIC and 6 × MIC), harmine (1 × MIC and 6 × MIC) and saline (served as a control group) were separately added to the bacterial suspension so that the final bacterial concentration were 10^6~10^7 CFU/mL. At the predetermined time point (0, 0.5, 2, 4, 6, 12 and 24 h), […] of aliquots were serially diluted in normal saline, plated on sterile Muellere Hinton agar plates, and incubated at 37 °C for 24 h. After incubation, the viable colonies were counted and represented as log10 (CFU/mL). The same procedure was repeated in triplicate.
Figure 3 Time-kill kinetics of compound 3c (A) and 5a (B) at 1 × and 6 × MIC against S. aureus (CICC 10384).

Setting [10] is: iv, i.v. 10 mg/kg, single dose, n = 6, Mean ± SD.
[11] abbreviates: po, i.g. 40 mg/kg, single dose, n = 6, Mean ± SD.
Setting [12] is: Gram-negative, Mueller-Hinton broth, 37 °C, 18–24 h.
Where [13] appears, read: Gram-positive, Mueller-Hinton broth, 37 °C, 18–24 h.

These results are taken from PMC8400480, “Synthesis, Antibacterial and Pharmacokinetic Evaluation of Novel Derivatives of Harmine N^9-Cinnamic Acid” (Molecules, 2021).

Values after ≈ are worked out from the molar mass of the structure shown. Read-outs that look alike come from different tables or passages of the source.

Take `COc1ccc2c3ccnc(C)c3n(CCCOC(=O)/C=C/c3ccccc3[N+](=O)[O-])c2c1` [Compound 3c, 4-(7-Methoxy-1-methyl-9H-pyridine [3,4-b]indole-9-yl) propyl(E)-3-(2-nitrophenyl) acrylate]: the melting point was 128.6 to 129.3 °C. Moreover, in [1] (setting [10]), the total exposure AUC(0-inf) stood at 1050 ± 231 ng·h/mL, the AUC(0-t) stood at 1050 ± 229 ng·h/mL, the highest level (Cmax) was 837 ± 229 ng/mL and the mean residence time (MRT) is 2.86 ± 0.71 h. In data set [1] (setting [10]), the time to peak (Tmax) amounted to 0.083 ± 0.03 h and the half-life was 2.27 ± 0.62 h. This compound returned a bioavailability in [1] (oral, i.g. 40 mg/kg vs i.v. 10 mg/kg, from AUC0→∞) of 6.9%. In data set [1] (setting [11]), this compound had an AUC(0-inf) of 290 ± 55.2 ng·h/mL, an exposure AUC(0-t) of 284 ± 54.4 ng·h/mL, a CL/F of 4.33 mL/min/kg and a peak concentration (Cmax) of 159 ± 59.6 ng/mL. Also, in [1] (setting [11]), the MRT worked out at 3.33 ± 0.83 h, the time to peak (Tmax) is 0.25 ± 0.033 h and the half-life is 1.3 ± 0.47 h. In addition, the MIC in [2] (setting [12]) stood at 219 µg/mL (≈ 491 µM). In addition, the MIC in data set [3] (setting [13]) is 13.7 µg/mL (≈ 30.7 µM). Besides, the minimal inhibitory concentration (MIC) in data set [4] (setting [12]) was 219 µg/mL (≈ 491 µM). Also, the MIC in data set [5] (setting [13]) was 54.7 µg/mL (≈ 123 µM). Further, in data set [6] (setting [13]), the MIC was determined as 13.7 µg/mL (≈ 30.7 µM). Also, in data set [7] (HepG2, MTT, 48 h incubation, n = 3, Mean ± SD), the half-inhibitory concentration (IC50) turned out to be 161.7 ± 1.31 µM. In addition, in [8] (MCF7, MTT, 48 h incubation, n = 3, Mean ± SD), the IC50 stood at 94.9 ± 3.64 µM. Also, the IC50 in data set [9] (WI-38, MTT, 48 h incubation, n = 3, Mean ± SD) turned out to be 340.3 ± 2.79 µM. Also, the “time to 4-log10 reduction” value in the data set with S. aureus (CICC 10384) (1 × MIC) is “about 4 h”. In addition, the “time to completely kill the bacteria” value in the data set on S. aureus (CICC 10384) (6 × MIC) is reported as at most 0.5 h.

With `COc1ccc2c(c1)[nH]c1c(C)nccc12` [Harmine, 7-methoxy-1-methyl-9H-pyridine [3,4-b] indole], the minimum inhibitory concentration (MIC) in [2] was found to be 15.6 µg/mL (≈ 73.6 µM); in data set [3], 15.6 µg/mL (≈ 73.6 µM); in data set [4], 15.6 µg/mL (≈ 73.6 µM); in data set [5] it was 62.5 µg/mL (≈ 294 µM); in [6], 31.2 µg/mL (≈ 147 µM). Further, the half-maximal inhibitory concentration (IC50) in data set [7] (HepG2, 48 h) came out at 67.6 ± 1.6 µM; in [8] (MCF7, 48 h), 78.9 ± 2.82 µM; in data set [9] (WI-38, 48 h) it was 103.4 ± 0.96 µM. In the data set with S. aureus (CICC 10384) (1 × MIC), the “time-kill effect in words” value was “just slowed bacterial propagation”. The “time to 4-log10 reduction” value in the data set on S. aureus (CICC 10384) (6 × MIC) is on record as “about 24 h”.
